# Results: patent US8318781B2, “G-protein-conjugated receptor agonist” (Japan Science and Technology Agency, priority 2007, dated 2012)
# Where two headings read alike, the source gives them in different places.
# Assays:
# Format in all cases: cell-based
# [1] = molecular target: T1, human GPR120 (hGPR120) (Homo sapiens, UniProt Q5NUL3); assay: Determination of intracellular Ca2+ concentration (FLIPR), cell line TXGPR120; details: for agonistic activity for hGPR120 (in words): cells in which GPR120 has been transgenically expressed; for [Ca^2+]/GPR120 10 μM (ratio vs. LA): relative fluorescence intensity vs LA at 10 μM
# T1 construct: expressed in transfected cells; doxycycline-inducible expression vector
# T1 sequence (Q5NUL3 1-361): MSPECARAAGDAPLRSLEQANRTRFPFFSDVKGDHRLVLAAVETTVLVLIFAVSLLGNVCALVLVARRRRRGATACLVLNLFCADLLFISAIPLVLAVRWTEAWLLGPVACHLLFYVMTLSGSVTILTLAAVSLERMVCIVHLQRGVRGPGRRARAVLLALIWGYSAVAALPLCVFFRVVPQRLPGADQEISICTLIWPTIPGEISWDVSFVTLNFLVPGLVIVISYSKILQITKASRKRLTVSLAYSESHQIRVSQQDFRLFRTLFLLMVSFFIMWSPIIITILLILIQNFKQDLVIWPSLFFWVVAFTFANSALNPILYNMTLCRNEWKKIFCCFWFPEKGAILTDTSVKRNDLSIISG
# Procedure: (§1) (1) In this test, The cell lines TXGPR40, TXGPR120 and GPR120/Flp-in were plated onto a collagen-coated black 96-well plate in 2×10^5 cells/well. The 96-well plates containing the cells were centrifuged and treated with Doxycycline (final concentration 10 μg/mL), incubated in a CO2 incubator for 21 hours, then used for assay.
# (§2) (2) The ligand used in this test includes NCP04, NCP14, NCG20, NCG21, NCG22, NCG23, NCP02, NCP03, NCP05, NCP06, NCG14, NCG17, NCG19, NCG28, NCG29, NCG30, NCG31, NCG34, NCG35, NCG37, NCG38, NCG44, NCG45, NCG46, and NCG54. Each ligand was dissolved in DMSO and adjusted to the concentration of 10 mM, then diluted with Hanks' Balanced Salt Solution (pH 7.4) containing 20 mM HEPES (referred to as FLIPR buffer hereinafter) to the final concentration of 1 to 100 μM. 1% DMSO was used as the negative control, and LA was used as the positive control.
# (§3) The ligands and controls were placed in different 96-well plates from the plates for the cells.
# (§4) (3) The 96-well plate containing the cells was removed from the CO2 incubator. A fluorescent dye prepared in a twofold higher concentration (Ca Assay Kit Component A diluted with FLIPR Buffer) was added in 50 μL/well, then allowed to stand in the dark at room temperature for one hour.
# (§5) (4) After one hour, the 96-well plate containing the cells and the 96-well plate in which ligands and controls were prepared were set on FLIPR (Fluorometric Imaging Plate Reader) for determination.
# (§6) (5) Fluorometry using FLIPR was carried out at a laser output of 1.0 W for five minutes. […] after the start of the determination, the ligand (25 μL) was added dropwise to the cell plate at a rate of 50 μL/sec. The intensity of fluorescence was automatically digitized by the application program installed in the FLIPR from the image taken by the CCD camera (with exposure time of 0.40 sec). The interval of data sampling was one second for the initial one minute after the start of operation, and six seconds for the subsequent four minutes.
# (§7) (6) The maximum fluorescence intensity was obtained from the data showing the change in the fluorescence intensity over time observed in each well. The maximum fluorescence intensity was plotted against ligand concentration, and pEC50 was calculated. The ratio of the fluorescence intensity for each ligand to LA at 10 μM was calculated as the relative intensity of each ligand.
# [2] = molecular target: T2, human GPR40 (hGPR40) (Homo sapiens, UniProt O14842); assay: ERK assay, screening for GPR40 ligands in cell line TXGPR40; details: TXGPR40 cells; for ERK/GPR40 10 μM: ligand 10 μM; for ERK/GPR40 10 μM / ERK/GPR40 100 μM: class relative to LA; for ERK/GPR40 100 μM: ligand 100 μM
# T2 construct: expressed in transfected cells; doxycycline-inducible expression vector
# Procedure: (§8) This Test 1 was carried out by using the following materials and methods.
# (§9) (1) In this test, the cell lines TXGPR40 and TXGPR120 were plated in 35-mm dishes in 5×10^5 cells/per dish.
# (§10) Each ligand was dissolved in DMSO, diluted tenfold with the medium to make the total amount of 100 μl. DMSO was used as the negative control, and PMA (phorbol-12-myristate-13-acetate) was used as the positive control.
# (§11) (3) The medium was removed from the dish of the cell to reduce the total amount of liquid to 0.9 ml.
# (§12) (4) The ligand solution was added dropwise to the cell solution, and dispersed by gently shaking the dish, and allowed to react at room temperature.
# (§13) (5) After 5 minutes of reaction, the medium was discarded, and the remaining medium on the dish was removed on ice using an aspirator.
# (§14) (6) 150 μl of Lysis buffer (50 mM HEPES (pH 7.0), 150 mM NaCl, 10% glycerol, 1% NonidetP-40, 2 mM MgCl2, 1 mM EDTA, 100 mM NaF, 10 mM sodium phosphate, 1 mM Na3VO4, 20 mM β-glycerophosphate, and Proteinase inhibitor) were added, then the cells were collected using a cell scraper.
# (§15) (1) The crude enzyme solution mixed with SDS Sample Buffer was subjected to ultrasonication with a sonifier, then incubated at 90° C. for five minutes.
# (§16) (2) The mixture was vortexed and centrifuged at 15,000 rpm for five minutes at 4° C.
# (§17) (3) The supernatant of the centrifuged sample was applied to two 7.5% acrylamide gel slabs placed in an electrophoresis tank filled with 1×SDS-PAGE Running Buffer (25 mM Tris, 0.2 M Glycin, and 1% SDS). Electrophoresis was carried out under a constant current of 40 mA for about 80 to 90 minutes.
# (§18) (1) A PVDF membrane cut in the same size as the gel slab was immersed in methanol for about 15 seconds and then shaken in Transfer Buffer C solution (25 mM Tris, 0.02% SDS, 2% methanol and 40 mM 6-aminohexanoic acid) at room temperature to swell for 15 minutes. Filter paper for blotting was cut into a 10-cm square.
# (§19) (2) On the blotting apparatus were placed sequentially two pieces of filter paper immersed in A solution (0.3 M Tris, 0.02% SDS and 2% methanol), two pieces of filter paper immersed in B solution (25 mM Tris, 0.02% SDS and 2% methanol), and the membrane thereon. The gel slab after electrophoresis, and finally two pieces of filter paper immersed in C solution was placed thereon, and the apparatus was closed.
# (§20) (3) The protein was transferred to the membrane at 15 V for 30 minutes.
# (§21) (1) The following procedure was all carried out at room temperature. After the protein transfer, the membrane was placed into a vial containing 1×TTBS (0.2 M Tris, 1.5 M NaCl, 0.2% Tween 20) and washed for 15 minutes.
# (§22) (2) TTBS was discarded, and about 10 ml of Block Ace was added and blocked on a shaker for one hour.
# (§23) (1) The primary antibodies (p44/42 MAP Kinase Antibody and Phospho-p44/42 MAP Kinase Antibody) were each diluted 1000-fold with TTBS.
# (§24) (2) After blocking, the Block Ace solution was removed, the solution of the primary antibody was added and allowed to react on the shaker for two hours.
# (§25) (1) The secondary antibody (Anti-rabbit Ig, Horseradish Peroxidase linked F(ab′)2 fragments) was diluted 5000-fold with TTBS.
# (§26) (2) The primary antibody solution was removed and the membrane was washed three times on the shaker in TTBS for five to ten minutes each.
# (§27) (3) TTBS was removed and the solution of secondary antibody was added and left for 1 hour on the shaker.
# (§28) (1) 2 ml each of Detection Reagent 1 and Detection Reagent 2 from ECL kit were mixed together on ice.
# (§29) (2) The solution of secondary antibody was removed from the membrane reacted with the secondary antibody and then washed three times on the shaker in TTBS for five minutes each.
# (§30) (3) The liquid was thoroughly removed from the membrane, which was then placed in a plastic bag, and 2 ml of the Detection Reagent mixture was added per each membrane.
# (§31) (4) The membrane was kept in contact with a film in the cassette for one to five minutes, and the film was developed using an automatic developing machine.
# [3] = molecular target: T1, human GPR120 (hGPR120); assay: Determination of intracellular Ca2+ concentration (FLIPR), cell line GPR120/Flp-in; details: for [Ca^2+]/GPR120/Flp-In 10 μM (ratio vs. LA): relative fluorescence intensity vs LA at 10 μM
# Procedure: as §1, §2, §3, §4, §5, §6, §7
# [4] = molecular target: T1, human GPR120 (hGPR120); assay: ERK assay, screening for GPR120 ligands in cell line TXGPR120; details: TXGPR120 cells; for ERK/GPR120 10 μM: ligand 10 μM; for ERK/GPR120 10 μM / ERK/GPR120 100 μM: class relative to LA; for ERK/GPR120 100 μM: ligand 100 μM;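 on ERK/GPR120 10 μM: signals normalized between DMSO and PMA controls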
# Procedure: as §8, §9, §10, §11, §12, §13, §14, §15, §16, §17, §18, §19, §20, §21, §22, §23, §24, §25, §26, §27, §28, §29, §30, §31
# [5] = molecular target: T2, human GPR40 (hGPR40); assay: Determination of intracellular Ca2+ concentration (FLIPR), cell line TXGPR40; details: for agonistic activity for GPR40 (in words): cells in which GPR40 has been transgenically expressed; for [Ca^2+]/GPR40 10 μM (ratio vs. LA): relative fluorescence intensity vs LA at 10 μM
# Procedure: as §1, §2, §3, §4, §5, §6, §7
# [6] = GPR120/Flp-in cells, maximum fluorescence intensity vs ligand concentration, read-out: [Ca^2+]/GPR120/Flp-In pEC50 (converted)
# [7] = TXGPR40 cells, maximum fluorescence intensity vs ligand concentration, read-out: [Ca^2+]/GPR40 pEC50 (converted)
# T2 sequence (O14842 whole entry): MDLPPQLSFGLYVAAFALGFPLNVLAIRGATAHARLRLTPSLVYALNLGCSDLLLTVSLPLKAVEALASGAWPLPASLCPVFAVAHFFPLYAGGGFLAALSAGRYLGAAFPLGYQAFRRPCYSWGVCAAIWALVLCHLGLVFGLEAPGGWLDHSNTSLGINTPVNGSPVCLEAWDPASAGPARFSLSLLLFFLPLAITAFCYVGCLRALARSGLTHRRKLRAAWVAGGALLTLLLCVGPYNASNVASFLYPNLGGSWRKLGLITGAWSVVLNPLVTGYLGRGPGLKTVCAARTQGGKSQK
EC50 [1],agonistic activity for hGPR120 (in words) [1],[Ca^2+]/GPR120 10 μM (ratio vs. LA) ([1]; TXGPR120 cells),ERK activation for GPR40 (in words) ([2]; FIGS. 1-4),ERK/GPR40 10 μM [2],ERK/GPR40 100 μM [2],EC50 [3],[Ca^2+]/GPR120/Flp-In 10 μM (ratio vs. LA) ([3]; GPR120/Flp-in cells),ERK activation for GPR120 (in words) ([4]; FIGS. 5-8),ERK/GPR120 10 μM [4],ERK/GPR120 100 μM [4],EC50 [5],agonistic activity for GPR40 (in words) [5],[Ca^2+]/GPR40 10 μM (ratio vs. LA) ([5]; TXGPR40 cells),"EC50 ([1]; TXGPR120 cells, maximum fluorescence intensity vs ligand concentration, read-out: [Ca^2+]/GPR120 pEC50 (converted))","EC50 [3, 6]","EC50 [5, 7]",Compound
22.4 µM,exhibit a similar effect,0.56,strongly activated ERK,++ (++ denotes 50 to 100% of LA),+++ (+++ denotes a higher value than LA),6.76 µM,0.81,strongly activate ERK,+++ (+++ denotes a higher value than LA),+++ (+++ denotes a higher value than LA),13.5 µM,showed a specific reactivity,0.34,,,,Cc1cccc(N(CCOc2ccc(CCCC(=O)O)cc2)c2ccccc2)n1 [NCG38]
,exhibit a similar effect,0.49,,,+ (+ denotes 0 to 100% of LA),,0.85,,+ (+ denotes 0 to 100% of LA),++ (++ denotes 50 to 100% of LA),,,0.01,22.9 µM,3.55 µM,,O=C(O)CCCc1ccc(OCCN(c2ccccc2)c2ncccn2)cc1 [NCG44]
,exhibit a similar effect,0.00,,+ (+ denotes 0 to 100% of LA),+++ (+++ denotes a higher value than LA),,0.45,,+ (+ denotes 0 to 100% of LA),+ (+ denotes 0 to 100% of LA),,showed a specific reactivity,1.47,,15.5 µM,3.39 µM,CCN(CCOc1ccc(CCC(=O)O)cc1)c1ccccn1 [NCP02]
,exhibit a similar effect,0.00,,++ (++ denotes 50 to 100% of LA),+++ (+++ denotes a higher value than LA),,0.57,,+ (+ denotes 0 to 100% of LA),++ (++ denotes 50 to 100% of LA),,showed a specific reactivity,1.25,,17.8 µM,5.25 µM,CCCN(CCOc1ccc(CCC(=O)O)cc1)c1ccccn1 [NCP03]
,exhibit a similar effect,0.00,,+++ (+++ denotes a higher value than LA),+++ (+++ denotes a higher value than LA),,0.33,,+ (+ denotes 0 to 100% of LA),+++ (+++ denotes a higher value than LA),,showed a specific reactivity,2.15,,18.2 µM,2.57 µM,CCCCN(CCOc1ccc(CCC(=O)O)cc1)c1ccccn1 [NCP04]
,exhibit a similar effect,0.00,,+++ (+++ denotes a higher value than LA),+++ (+++ denotes a higher value than LA),,0.45,,+ (+ denotes 0 to 100% of LA),+++ (+++ denotes a higher value than LA),,showed a specific reactivity,1.22,,11.5 µM,5.62 µM,CCCCCN(CCOc1ccc(CCC(=O)O)cc1)c1ccccn1 [NCP05]
,exhibit a similar effect,0.00,,++ (++ denotes 50 to 100% of LA),++ (++ denotes 50 to 100% of LA),,0.56,,,++ (++ denotes 50 to 100% of LA),,showed a specific reactivity,0.98,,15.5 µM,9.77 µM,O=C(O)CCc1ccc(OCCN(c2ccccc2)c2ccccn2)cc1 [NCP14]
